How the values were obtained:
Assay type in all cases: in vivo
[1] = test system: barnyardgrass (Echinochloa crus-galli); test: Test B postemergence; conditions: 13 to 15 days
Excerpt: (§1) Seeds selected from barnyardgrass (Echinochloa crus-galli), Surinam grass (Brachiaria decumbens), cocklebur (Xanthium strumarium), corn (Zea mays), crabgrass (Digitaria sanguinalis), giant foxtail (Setaria faberii), lambsquarters (Chenopodium album), morning glory (Ipomoea hederacea), pigweed (Amaranthus retroflexus), rice (Oryza saliva) and velvetleaf (Abutilon theophrasti) were planted and treated preemergence with test chemicals formulated in a non-phytotoxic solvent mixture which included a surfactant.
(§2) At the same time, plants selected from these crop and weed species and also blackgrass (Alopecurus myosuroides), wheat (Triticum aestivum) and wild oat (Avena fatua) were treated with postemergence applications of test chemicals formulated in the same manner. Plants ranged in height from 2 to 18 cm (1- to 4-leaf stage) for postemergence treatments. Plant species in the flooded paddy test consisted of rice (Oryza saliva), smallflower flatsedge (Cyperus difformis), duck salad (Heteranthera limosa) and barnyardgrass (Echinochloa crus-galli) grown to the 2-leaf stage for testing. Treated plants and controls were maintained in a greenhouse for 13 to 15 days, after which time all species were compared to controls and visually evaluated. Plant response ratings, summarized in Table B, are based on a scale of 0 to 100 where 0 is no effect and 100 is complete control. A dash (-) response means no test result.

[2] = test system: corn (Zea mays); test: Test B postemergence; conditions: 13 to 15 days
Excerpt: as §1, §2

[3] = test system: morning glory (Ipomoea hederacea); test: Test B postemergence; conditions: 13 to 15 days
Excerpt: as §1, §2

[4] = test system: Surinam grass (Brachiaria decumbens); test: Test B postemergence; conditions: 13 to 15 days
Excerpt: as §1, §2

[5] = test system: giant foxtail (Setaria faberii); test: Test B postemergence; conditions: 13 to 15 days
Excerpt: as §1, §2

[6] = test system: velvetleaf (Abutilon theophrasti); test: Test B postemergence; conditions: 13 to 15 days
Excerpt: as §1, §2

[7] = test system: wheat (Triticum aestivum); test: Test B postemergence; conditions: 13 to 15 days
Excerpt: as §1, §2

[8] = test system: blackgrass (Alopecurus myosuroides); test: Test B postemergence; conditions: 13 to 15 days
Excerpt: as §1, §2

[9] = test system: wild oat (Avena fatua); test: Test B postemergence; conditions: 13 to 15 days
Excerpt: as §1, §2

[10] = test system: lambsquarters (Chenopodium album); test: Test B postemergence; conditions: 13 to 15 days
Excerpt: as §1, §2

[11] = test system: crabgrass (Digitaria sanguinalis); test: Test B postemergence; conditions: 13 to 15 days
Excerpt: as §1, §2

[12] = test system: cocklebur (Xanthium strumarium); test: Test B postemergence; conditions: 13 to 15 days
Excerpt: as §1, §2

[13] = test system: pigweed (Amaranthus retroflexus); test: Test B postemergence; conditions: 13 to 15 days
Excerpt: as §1, §2

[14] = test system: barnyardgrass (Echinochloa crus-galli); test: Test C flooded paddy test; conditions: for Barnyardgrass plant response rating: Flooded Paddy, scale 0 to 100, 0 no effect, 100 complete control; for Plant response rating, Barnyardgrass: flooded paddy test, scale 0 to 100 (0 no effect, 100 complete control)
Method in brief: (§3)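 Visual ratings (0 = no effect, 100 = complete control) were made 12–14 days after treatment, relative to greenhouse controls. Plants in the flooded paddy test were rice, smallflower flatsedge, duck salad and barnyardgrass, treated at the 2-leaf stage.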

[15] = test system: smallflower flatsedge (Cyperus difformis); test: Test C flooded paddy test; conditions: for Flatsedge plant response rating: Flooded Paddy, scale 0 to 100, 0 no effect, 100 complete control; for Plant response rating, Flatsedge: flooded paddy test, scale 0 to 100 (0 no effect, 100 complete control)
Method in brief: as §3

[16] = test system: duck salad (Heteranthera limosa); test: Test C flooded paddy test; conditions: for Ducksalad plant response rating: Flooded Paddy, scale 0 to 100, 0 no effect, 100 complete control; for Plant response rating, Ducksalad: flooded paddy test, scale 0 to 100 (0 no effect, 100 complete control)
Method in brief: as §3

[17] = test system: rice (Oryza saliva); test: Test C flooded paddy test; conditions: for Rice plant response rating: Flooded Paddy, scale 0 to 100, 0 no effect, 100 complete control; for Plant response rating, Rice: flooded paddy test, scale 0 to 100 (0 no effect, 100 complete control)
Method in brief: as §3

[18] = test system: barnyardgrass (Echinochloa crus-galli); test: Test B preemergence
Excerpt: as §1, §2

[19] = test system: corn (Zea mays); test: Test B preemergence
Excerpt: as §1, §2

[20] = test system: morning glory (Ipomoea hederacea); test: Test B preemergence
Excerpt: as §1, §2

[21] = test system: Surinam grass (Brachiaria decumbens); test: Test B preemergence
Excerpt: as §1, §2

[22] = test system: giant foxtail (Setaria faberii); test: Test B preemergence
Excerpt: as §1, §2

[23] = test system: velvetleaf (Abutilon theophrasti); test: Test B preemergence
Excerpt: as §1, §2

[24] = test system: lambsquarters (Chenopodium album); test: Test B preemergence
Excerpt: as §1, §2

[25] = test system: crabgrass (Digitaria sanguinalis); test: Test B preemergence
Excerpt: as §1, §2

[26] = test system: cocklebur (Xanthium strumarium); test: Test B preemergence
Excerpt: as §1, §2

[27] = test system: pigweed (Amaranthus retroflexus); test: Test B preemergence
Excerpt: as §1, §2

[28] = test system: rice (Oryza saliva); test: Test B preemergence
Excerpt: as §1, §2

[29] = Rate 125 g/ha, scale 0 (no effect) to 100 (complete control)
[30] = Rate 500 g/ha, scale 0 to 100, 0 is no effect, 100 is complete control
[31] = Preemergence, Rate 500 g/ha, scale 0 to 100, 0 no effect, 100 complete control
[32] = preemergence, Rate 125 g/ha, scale of 0 to 100 where 0 is no effect and 100 is complete control, 13 to 15 days

Cc1c(Cl)cc(N2CCC(n3ccc(C(C)(C)C)n3)C2=O)cc1Cl (centres unmarked) [Compound 74]
Plant response rating, Barnyardgrass [1, 29]: 0
Plant response rating, Barnyardgrass [1, 30]: 0
Plant response rating, Corn [2, 29]: 0
Plant response rating, Corn [2, 30]: 0
Plant response rating, Morningglory [3, 29]: 0
Plant response rating, Morningglory [3, 30]: 0
Plant response rating, Surinam grass [4, 29]: 0
Plant response rating, Surinam grass [4, 30]: 0
Plant response rating, Foxtail, Giant [5, 29]: 0
Plant response rating, Foxtail, Giant [5, 30]: 0
Plant response rating, Velvetleaf [6, 29]: 0
Plant response rating, Velvetleaf [6, 30]: 0
Plant response rating, Wheat [7, 29]: 0
Plant response rating, Wheat [7, 30]: 0
Plant response rating, Blackgrass [8, 29]: 0
Plant response rating, Blackgrass [8, 30]: 0
Plant response rating, Wild Oat [9, 29]: 0
Plant response rating, Wild Oat [9, 30]: 0
Plant response rating, Lambsquarters [10, 29]: 0
Plant response rating, Lambsquarters [10, 30]: 0
Plant response rating, Crabgrass [11, 29]: 0
Plant response rating, Crabgrass [11, 30]: 0
Plant response rating, Cocklebur [12, 29]: 0
Plant response rating, Cocklebur [12, 30]: 0
Plant response rating, Pigweed [13, 29]: 80
Plant response rating, Pigweed [13, 30]: 90
Barnyardgrass plant response rating ([14]; Rate 250 g/ha): 0
Barnyardgrass plant response rating ([14]; Rate 500 g/ha): 0
Plant response rating, Barnyardgrass ([14]; Rate 62 g/ha): 0
Plant response rating, Barnyardgrass ([14]; Rate 125 g/ha): 0
Flatsedge plant response rating ([15]; Rate 250 g/ha): 0
Flatsedge plant response rating ([15]; Rate 500 g/ha): 40
Plant response rating, Flatsedge ([15]; Rate 62 g/ha): 0
Plant response rating, Flatsedge ([15]; Rate 125 g/ha): 0
Ducksalad plant response rating ([16]; Rate 250 g/ha): 0
Ducksalad plant response rating ([16]; Rate 500 g/ha): 0
Plant response rating, Ducksalad ([16]; Rate 62 g/ha): 0
Plant response rating, Ducksalad ([16]; Rate 125 g/ha): 0
Rice plant response rating ([17]; Rate 250 g/ha): 0
Rice plant response rating ([17]; Rate 500 g/ha): 0
Plant response rating, Rice ([17]; Rate 62 g/ha): 0
Plant response rating, Rice ([17]; Rate 125 g/ha): 0
Plant response rating, Barnyardgrass [18, 31]: 90
Plant response rating, Barnyardgrass [18, 32]: 30
Plant response rating, Corn [19, 31]: 0
Plant response rating, Corn [19, 32]: 0
Plant response rating, Morningglory [20, 31]: 0
Plant response rating, Morningglory [20, 32]: 0
Plant response rating, Surinam grass [21, 31]: 20
Plant response rating, Surinam grass [21, 32]: 0
Plant response rating, Foxtail, Giant [22, 31]: 60
Plant response rating, Foxtail, Giant [22, 32]: 0
Plant response rating, Velvetleaf [23, 31]: 0
Plant response rating, Velvetleaf [23, 32]: 0
Plant response rating, Lambsquarters [24, 31]: 100
Plant response rating, Lambsquarters [24, 32]: 100
Plant response rating, Crabgrass [25, 31]: 70
Plant response rating, Crabgrass [25, 32]: 20
Plant response rating, Cocklebur [26, 31]: 0
Plant response rating, Cocklebur [26, 32]: 0
Plant response rating, Pigweed [27, 31]: 90
Plant response rating, Pigweed [27, 32]: 80
Plant response rating, Rice [28, 31]: 0
Plant response rating, Rice [28, 32]: 0

Cc1cc(N2CCC(n3ccc(C(C)(C)C)n3)C2=O)cc(Br)c1C (centres unmarked) [Compound 77]
Plant response rating, Barnyardgrass [1, 29]: 0
Plant response rating, Barnyardgrass [1, 30]: 0
Plant response rating, Corn [2, 29]: 0
Plant response rating, Corn [2, 30]: 0
Plant response rating, Morningglory [3, 29]: 0
Plant response rating, Morningglory [3, 30]: 0
Plant response rating, Surinam grass [4, 29]: 0
Plant response rating, Surinam grass [4, 30]: 0
Plant response rating, Foxtail, Giant [5, 29]: 0
Plant response rating, Foxtail, Giant [5, 30]: 0
Plant response rating, Velvetleaf [6, 29]: 0
Plant response rating, Velvetleaf [6, 30]: 0
Plant response rating, Wheat [7, 29]: 0
Plant response rating, Wheat [7, 30]: 0
Plant response rating, Blackgrass [8, 29]: 0
Plant response rating, Blackgrass [8, 30]: 0
Plant response rating, Wild Oat [9, 29]: 0
Plant response rating, Wild Oat [9, 30]: 0
Plant response rating, Lambsquarters [10, 29]: 0
Plant response rating, Lambsquarters [10, 30]: 20
Plant response rating, Crabgrass [11, 29]: 0
Plant response rating, Crabgrass [11, 30]: 0
Plant response rating, Cocklebur [12, 29]: 0
Plant response rating, Cocklebur [12, 30]: 20
Plant response rating, Pigweed [13, 29]: 70
Plant response rating, Pigweed [13, 30]: 80
Barnyardgrass plant response rating ([14]; Rate 250 g/ha): 0
Barnyardgrass plant response rating ([14]; Rate 500 g/ha): 20
Plant response rating, Barnyardgrass ([14]; Rate 62 g/ha): 0
Plant response rating, Barnyardgrass ([14]; Rate 125 g/ha): 0
Flatsedge plant response rating ([15]; Rate 250 g/ha): 80
Flatsedge plant response rating ([15]; Rate 500 g/ha): 80
Plant response rating, Flatsedge ([15]; Rate 62 g/ha): 70
Plant response rating, Flatsedge ([15]; Rate 125 g/ha): 70
Ducksalad plant response rating ([16]; Rate 250 g/ha): 0
Ducksalad plant response rating ([16]; Rate 500 g/ha): 30
Plant response rating, Ducksalad ([16]; Rate 62 g/ha): 0
Plant response rating, Ducksalad ([16]; Rate 125 g/ha): 0
Rice plant response rating ([17]; Rate 250 g/ha): 0
Rice plant response rating ([17]; Rate 500 g/ha): 30
Plant response rating, Rice ([17]; Rate 62 g/ha): 0
Plant response rating, Rice ([17]; Rate 125 g/ha): 0
Plant response rating, Barnyardgrass [18, 31]: 100
Plant response rating, Barnyardgrass [18, 32]: 20
Plant response rating, Corn [19, 31]: 0
Plant response rating, Corn [19, 32]: 0
Plant response rating, Morningglory [20, 31]: 0
Plant response rating, Morningglory [20, 32]: 0
Plant response rating, Surinam grass [21, 31]: 40
Plant response rating, Surinam grass [21, 32]: 0
Plant response rating, Foxtail, Giant [22, 31]: 0
Plant response rating, Foxtail, Giant [22, 32]: 0
Plant response rating, Velvetleaf [23, 31]: 0
Plant response rating, Velvetleaf [23, 32]: 0
Plant response rating, Lambsquarters [24, 31]: 100
Plant response rating, Lambsquarters [24, 32]: 90
Plant response rating, Crabgrass [25, 31]: 90
Plant response rating, Crabgrass [25, 32]: 60
Plant response rating, Cocklebur [26, 31]: 0
Plant response rating, Cocklebur [26, 32]: 0
Plant response rating, Pigweed [27, 31]: 100
Plant response rating, Pigweed [27, 32]: 90
Plant response rating, Rice [28, 31]: 0
Plant response rating, Rice [28, 32]: 0
